Measurements as given in US8338410B2, “Neuroprotective compounds and pharmaceutical compositions comprising them” (Biocodex, priority 2005, dated 2012).

How the values were obtained:
[1] = tested on: mice subjected to hypobaric hypoxia; experiment: Hypobaric hypoxia in mice (survival time); type: in vivo, NMRI male mice; conditions: mice; for Percentage variation / Survival time in seconds (m ± sem): hypobaric hypoxia 160 mmHg
Protocol: 1.1 Hypobaric Hypoxia in Mice
NMRI male mice from Janvier weighing between 25 and 30 grams were used after acclimatisation in the animal house for at least 7 days (t°=22±2° C.; humidity 50±20%; feed UAR “A04” SAFE (Augy, France) and tap water ad libitum; 12 hour night and day cycle (light from 7 a.m. to 7 p.m.).
The unfasting […] were distributed at random into lots of 10.
The protocol of Nakaniski et al. (1973) Life Sciences, 13, 467-474 was adapted for the purposes of the model.
Each mouse was placed in a dessicator (hermetically sealed enclosure) in which atmospheric pressure was reduced from 760 to 160 mmHg using a water pump. This pressure reduction was carried out in one minute and caused death of the control animals in approximately 1 minute.
The survival time of the animal, which corresponded to the difference between the time to death of the mouse assessed by respiratory arrest less the time required to induce the hypoxia was then noted.
The products under investigation were administered intraperitoneally (i.p.) (0.1 ml/10 g), 30 minutes before inducing hypobaric hypoxia, or orally (0.1 ml/10 g p.o.) 1 hour before hypoxia.
Etifoxine hydrochloride was dissolved in 1% Tween 80. The potassium cyanide (Merck) was dissolved in 0.9% NaCl.
The statistical test used was a one-factor analysis of variance to determine the treated groups, which differed from the control group receiving the vehicle, at a threshold of 5%.

[2] = tested on: cortical neurones in the presence of astrocytes in culture; experiment: Prior cytotoxicity, microscopic observation after 48 hours; type: cell-based; conditions: 100 μM, 48 hours incubation
Protocol: • Cell type: Initial culture of cortical neurones from 14 day rat embryos and initial culture of cortical astrocytes from newborn rats. • Culture medium: DMEM-Ham F12 (Invitrogen 21331020) • B27 2% (invitrogen 17504044) • L-glutamine 2 mM (Invitrogen 25030024) • Penicillin 50 UI/ml—Streptomycin 50 μg/ml (Invitrogen 15070063) • Nerve Growth Factor 10 ng/ml (NGF, Invitrogen 13290.010) • Survival medium: MEM (Invitrogen 21090022) • L-glutamine 2 mM (Invitrogen 25030024) • Penicillin 50 UI/ml—Streptomycin 50 μg/ml (Invitrogen 15070063) • Supplement N2 (Invitrogen 17502-048) 1.2 Prior Cytotoxicity • Platelets: 96 wells • Culture time: 8 days • Cells/well: cortical neurones+astrocytes • Product range: from 100 μM then ratio 3 • Replicates: 3 • Cell/product contact: 48 hours • Evaluation parameters: microscopic observation and MTT hydrolysis. • MTT: 3-(4,5-dimethylthiozol-2-yl)-2,5-diphenyltetrazolium bromide 1.3 Treatment and Analysis of the Network of Extensions Marked with Antineurofilament Antibody
A first experiment was carried out (conventional test used to measure the level of cell survival) in order to investigate the cytotoxicity of etifoxine in relation to cortical neurones in the presence of astrocytes in culture and thus to determine the maximum non-toxic concentration of etifoxine.

[3] = tested on: mice subjected to histotoxic hypoxia induced by potassium cyanide; experiment: KCN hypoxia (i.p.) in mice (survival time); type: in vivo, CD1 male mice; conditions: KCN 15 mg/kg i.p.
[4] = tested on: rats subjected to histotoxic hypoxia induced by potassium cyanide; experiment: KCN (i.v.) hypoxia in rats (survival time); type: in vivo, Wistar male rats; conditions: rats, KCN 4 mg/kg i.v.
[5] = compound i.p. dose 3, first i.p. series
[6] = compound i.p. dose 10, first i.p. series
[7] = compound i.p. dose 30, first i.p. series (control 106 ± 9)
[8] = compound i.p. dose 30, second i.p. series (control 91 ± 4)
[9] = compound i.p. dose 50, second i.p. series
[10] = compound i.p. dose 75, second i.p. series

CCNC1=Nc2ccc(Cl)cc2C(C)(c2ccccc2)O1.Cl (centres unmarked) [etifoxine, 6-chloro-2-ethylamino-4-methyl-4-phenyl-4H-[3,1]benzoxazine hydrochloride]
Percentage variation ([1]; i.p. 3 mg/kg): +12% | Survival time in seconds (m ± sem) ([1]; i.p. 3 mg/kg): 64.5 ± 3.4 s | Percentage variation ([1]; i.p. 10 mg/kg): +15% | Survival time in seconds (m ± sem) ([1]; i.p. 10 mg/kg): 66.1 ± 3.0 s | Percentage variation ([1]; i.p. 30 mg/kg): +42% | Survival time in seconds (m ± sem) ([1]; i.p. 30 mg/kg): 81.8 ± 4.6 s | Percentage variation ([1]; i.p. 50 mg/kg): +141% | Survival time in seconds (m ± sem) ([1]; i.p. 50 mg/kg): 138.5 ± 23.3 s | Percentage variation ([1]; i.p. 75 mg/kg): +130% | Survival time in seconds (m ± sem) ([1]; i.p. 75 mg/kg): 132.0 ± 21.6 s | Percentage variation ([1]; p.o. 30 mg/kg): +47% | Survival time in seconds (m ± sem) ([1]; p.o. 30 mg/kg): 81.5 ± 4.5 s | Percentage variation ([1]; p.o. 100 mg/kg): +72% | Survival time in seconds (m ± sem) ([1]; p.o. 100 mg/kg): 95.3 ± 5.6 s | Percentage variation ([1]; p.o. 200 mg/kg): +79% | Survival time in seconds (m ± sem) ([1]; p.o. 200 mg/kg): 99.5 ± 2.7 s | Percentage variation ([1]; p.o. 300 mg/kg): +108% | Survival time in seconds (m ± sem) ([1]; p.o. 300 mg/kg): 115.5 ± 8.6 s | time to death ([1]; hypobaric hypoxia, over 30 mg/1 kg i.p. or p.o.): significantly increased the time to death | astrocyte mortality, visual examination with a microscope [2]: astrocyte mortality was observed | Percentage variation [3, 5]: +15% | Survival time in seconds (m ± sem) [3, 5]: 122 ± 7 s | Percentage variation [3, 6]: +7% | Survival time in seconds (m ± sem) [3, 6]: 113 ± 5 s | Percentage variation [3, 7]: +22% | Survival time in seconds (m ± sem) [3, 7]: 129 ± 11 s | Percentage variation [3, 8]: +19% | Survival time in seconds (m ± sem) [3, 8]: 108 ± 4 s | Percentage variation [3, 9]: +36% | Survival time in seconds (m ± sem) [3, 9]: 124 ± 8 s | Percentage variation [3, 10]: +46% | Survival time in seconds (m ± sem) [3, 10]: 133 ± 6 s | Percentage variation ([3]; compound p.o. dose 100): −13% | Survival time in seconds (m ± sem) ([3]; compound p.o. dose 100): 94 ± 6 s | Percentage variation ([3]; compound p.o. dose 200): +14% | Survival time in seconds (m ± sem) ([3]; compound p.o. dose 200): 123 ± 12 s | Percentage variation ([3]; compound p.o. dose 300): −6% | Survival time in seconds (m ± sem) ([3]; compound p.o. dose 300): 102 ± 7 s | survival time ([3]; oral administration): did not significantly affect survival time | time to death ([3]; over 50 mg/kg i.p.): significantly increased the time to death | Percentage variation ([4]; compound i.p. dose 30): +7% | Survival time in seconds (m ± sem) ([4]; compound i.p. dose 30): 60.3 ± 2.0 s | Percentage variation ([4]; compound i.p. dose 50): +90% | Survival time in seconds (m ± sem) ([4]; compound i.p. dose 50): 107.3 ± 6.1 s | Percentage variation ([4]; compound i.p. dose 75): +155% | Survival time in seconds (m ± sem) ([4]; compound i.p. dose 75): 144.3 ± 11.5 s | Percentage variation ([4]; compound p.o. dose 50): +7% | Survival time in seconds (m ± sem) ([4]; compound p.o. dose 50): 59.5 ± 2.1 s | Percentage variation ([4]; compound p.o. dose 100): +8% | Survival time in seconds (m ± sem) ([4]; compound p.o. dose 100): 60.1 ± 1.2 s | Percentage variation ([4]; compound p.o. dose 200): +15% | Survival time in seconds (m ± sem) ([4]; compound p.o. dose 200): 63.9 ± 2.0 s | time to death ([4]; from 50 mg/kg i.p. and 200 mg/kg p.o.): significantly increased the time to death
